BindingDB's records for doi:10.7270/Q2H70D87 (Nmmlsc, 2011)

Target: 60S ribosomal protein L19-A (Saccharomyces cerevisiae (strain ATCC 204508 / S288c), UniProt P0CX82)
Assay: RPL19A-GFP expression changes in yeast, dose response, cell-based, cherry pick 3, SAR, flow cytometry GFP, multiplex (AID 488814)
Settings: inactive by the depositor's call

Chain of 60S ribosomal protein L19-A (P0CX82 whole entry): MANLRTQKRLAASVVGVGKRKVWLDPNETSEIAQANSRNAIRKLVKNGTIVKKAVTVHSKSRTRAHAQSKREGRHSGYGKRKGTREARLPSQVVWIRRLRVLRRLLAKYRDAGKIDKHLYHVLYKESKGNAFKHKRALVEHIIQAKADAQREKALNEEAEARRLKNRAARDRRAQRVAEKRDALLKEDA

Structure (SMILES) | EC50
CCOC(=O)CS(=O)(=O)c1nc(-c2ccccc2)cc(C(F)(F)F)n1 [2-[4-phenyl-6-(trifluoromethyl)pyrimidin-2-yl]sulfonylacetic acid ethyl ester] | 55.7 µM
Cc1ccc(C(=O)Nc2nc(-c3ccccn3)cs2)o1 [5-methyl-N-[4-(2-pyridinyl)-2-thiazolyl]-2-furancarboxamide] | 38.2 µM
